Results on 10 compounds are retold here after patent US20240360067A1, “DERIVATIVES OF ITACONIC ACID AND THEIR USE AS ANTI-INFLAMMATORY AGENTS” (Sitryx Therapeutics Limited, priority 2021, published 2024).

The test system of one data set is IL-1β. Description: THP-1 AlphaLISA IL-1β cytokine assay (PMA-differentiated THP-1, LPS then nigericin). It is filed as cell-based. The settings on record: 30 min pre-incubation, LPS 24 hr, nigericin 1 hour. How it is done:
(§1) Measuring Inhibitory Effects on IL-1β, and IL-6 Cytokine Output from THP-1s
(§2) The cytokine inhibition profiles of compounds of formula (I) were determined in a differentiated THP-1 cell assay. All assays were performed in RPMI-1640 growth medium (Gibco), supplemented with 10% fetal bovine serum (FBS; Gibco), 1% penicillin-streptomycin and 1% sodium pyruvate unless specified otherwise. The IL-1β and IL-6 cytokine inhibition assays were each run in a background of differentiated THP-1 cells as described below. All reagents described were from Sigma-Aldrich unless specified otherwise. Compounds were prepared as 10 mM DMSO stocks.
(§3) THP-1 cells were expanded as a suspension up to 80% confluence in appropriate growth medium. Cells were harvested, suspended, and treated with an appropriate concentration of phorbol 12-myristate 13-acetate (PMA) over a 72 hr period (37° C./5% CO2).
(§4) Following 72 hrs of THP-1 cell incubation, cellular medium was removed and replaced with fresh growth media containing 1% of FBS. Working concentrations of compounds were prepared separately in 10% FBS treated growth medium and pre-incubated with the cells for 30 minutes (37° C./5% CO2). Following the 30 minute compound pre-incubation, THP-1s were treated with an appropriate concentration of LPS and the THP-1s were subsequently incubated for a 24 hr period (37° C./5% CO2). An appropriate final concentration of Nigericin was then dispensed into the THP-1 plates and incubated for 1 hour (37° C./5% CO2) before THP-1 supernatants were harvested and collected in separate polypropylene 96-well holding plates.
(§5) Reagents from each of the IL-1β and IL-6 commercial kits (Perkin Elmer) were prepared and run according to the manufacturer's instructions. Subsequently, fluorescence signal detection in a microplate reader was measured (EnVision® Multilabel Reader, Perkin Elmer).
(§6) Percentage inhibition was calculated per cytokine by normalizing the sample data to the high and low controls used within each plate (+/−LPS respectively).
In general terms: In Alpha technology, singlet oxygen from a donor bead excites a nearby acceptor bead.

Data set [1] can be described thus: Hepatocyte stability assay, mouse. The format is in vitro ADME. The settings on record: 10 μM compound, 0.5×10^6 cells/mL, 60 min; for CIint: Mouse hepatocytes; for half-life at 10 μM: cryo-preserved hepatocytes, read-out: T½. An excerpt: (§7) Defrosted cryo-preserved hepatocytes (viability >70%) were used to determine the metabolic stability of a compound via calculation of intrinsic clearance (CIint; a measure of the removal of a compound from the liver in the absence of blood flow and cell binding). Clearance data are particularly important for in vitro work as they can be used in combination with in vivo data to predict the half-life and oral bioavailability of a drug.
(§8) The metabolic stability in hepatocytes assay involved a time-dependent reaction using both positive and negative controls. The cells must be pre-incubated at 37° C. then spiked with test compound (and positive control); samples taken at pre-determined time intervals were analysed to monitor the change in concentration of the initial drug compound over 60 minutes. A buffer incubation reaction (with no hepatocytes present) acted as a negative control and two cocktail solutions, containing compounds with known high and low clearance values (verapamil/7-hydroxycoumarin and propranolol/diltiazem), acted as positive controls. • 1. The assay was run with a cell concentration of 0.5×10^6 cells/mL in Leibovitz buffer. • 2. All compounds and controls were run in duplicate. • 3. Compound concentration was 10 μM. • 4. All compounds and controls were incubated with both cells and buffer to show turnover is due to hepatic metabolism. • 5. All wells on the incubation plate had 326.7 μL of either cells or buffer added. • 6. Prior to assay, cell and buffer-only incubation plates were preincubated for 10 mins at 37° C. • 7. The assay was initiated by adding compounds, 3.3 μL of 1 mM in 10% DMSO-90% Buffer; final DMSO concentration is 0.1%. • 8. Samples were taken at regular timepoints (0, 5, 10, 20, 40, 60 min) until 60 mins. • 9. Sample volume was 40 μL and added to 160 μL of crash solvent (acetonitrile with internal standard) and stored on ice. • 10. At the end of the assay, the crash plates were centrifuged at 3500 rpm for 20 mins at 4° C. • 11. 80 μL of clear supernatant was removed and mixed with 80 μL of deionised water before being analysed by LC-MS/MS.
(§9) Raw LC-MS/MS data were exported to, and analysed in, Microsoft Excel for determination of intrinsic clearance. The percentage remaining of a compound was monitored using the peak area of the initial concentration as 100%. Intrinsic clearance and half-life values were calculated using a graph of the natural log of percentage remaining versus the time of reaction in minutes.

The next data set concerns NRF2. The experiment in a line: NRF2 activation assay (DiscoverX PathHunter NRF2 translocation kit, U2OS cells). The format is cell-based. The settings on record: Homo sapiens; for Emax: U2OS, normalised to dimethyl fumarate high control; for EC50: U2OS PathHunter cells, 6 hours.
A short description of data set [2]: Hepatocyte stability assay, human. It is filed as in vitro ADME. As to conditions: 10 μM compound, 0.5×10^6 cells/mL, 60 min; for CIint: Human hepatocytes; for half-life at 10 μM: cryo-preserved hepatocytes, read-out: T½.
From the text: as §7, §8, §9

The next data set relates to IL-6. The experiment in a line: THP-1 AlphaLISA IL-6 cytokine assay (PMA-differentiated THP-1, LPS then nigericin). The settings on record: Homo sapiens; differentiated THP-1 cells; 30 min pre-incubation, LPS 24 hr, nigericin 1 hour. It is filed as cell-based. Here is the method: as §1, §2, §3, §4, §5, §6
Where [3] appears, read: Homo sapiens, THP-1, differentiated THP-1 cells.

For orientation: IC50 means the point on the concentration scale where inhibition reaches its midpoint. By Emax is commonly meant the greatest response seen or fitted, relative to the assay's reference. The EC50 is the concentration that produces a half-maximal response. A low value points to higher potency in that assay. In the case of `C=C(CC(=O)OC)C(=O)OC1(c2ccc(C(F)(F)F)cc2)CCC1` [Example 8, 4-methyl 1-(1-(4-(trifluoromethyl)phenyl)cyclobutyl) 2-methylenesuccinate], the values for the IC50 in the data set with IL-1β (setting [3]) and in the data set with IL-6 were 7.6 µM and 10.8 µM, respectively. The CIint in data set [1] and in data set [2] was greater than 460 μL min^−1 10^−6 cells in each case. Further, the half-life at 10 μM in data set [1] and in data set [2] was less than 3 min throughout. For the same compound, the results for the Emax in the data set with NRF2 (+GSH) and in the data set on NRF2 (−GSH) were 38% and 51%, respectively. In addition, the EC50 with NRF2 (+GSH) was greater than 100 µM; with NRF2 (−GSH) it was 51 µM.
As for `C=C(CC(=O)NC1CCN(C)CC1)C(=O)OC1(c2ccc(C(F)(F)F)cc2)CCC1` [Example 14, 1-(4-(trifluoromethyl)phenyl)cyclobutyl 2-methylene-4-((1-methylpiperidin-4-yl)amino)-4-oxobutanoate], the results for the half-inhibitory concentration (IC50) with IL-1β (setting [3]) and in the data set on IL-6 were 5.2 µM and 3.9 µM, respectively. For the same compound, the CIint was determined as 108 μL min^−1 10^−6 cells in data set [1] and 40 μL min^−1 10^−6 cells in data set [2]. Besides, the half-life at 10 μM in data set [1] was found to be 12 min; in data set [2], 38 min. Also, the Emax with NRF2 (+GSH) stood at 95%; with NRF2 (−GSH) it was 80%. The EC50 in the data set with NRF2 (+GSH) stood at 49.4 µM; with NRF2 (−GSH), 14.6 µM.
As for `C=C(CC(=O)NCCN1CCOCC1)C(=O)OC1(c2ccc(C(F)(F)F)cc2)CCC1` [Example 13, 1-(4-(trifluoromethyl)phenyl)cyclobutyl 2-methylene-4-((2-morpholinoethyl)amino)-4-oxobutanoate], the figures for the IC50 in the data set with IL-1β (setting [3]), with IL-1β (differentiated THP-1 cells) and in the data set with IL-6 were 6.5 µM, 8.5 µM and 8.1 µM, respectively. Moreover, the CIint is recorded as 516 μL min^−1 10^−6 cells in data set [1] and 126 μL min^−1 10^−6 cells in data set [2]. The half-life at 10 μM in data set [1] was 4 min; in data set [2] it was 12 min. For the same compound, the values for the Emax in the data set on NRF2 (+GSH) and in the data set with NRF2 (−GSH) were 84% and 174%, respectively. The figures for the EC50 in the data set with NRF2 (+GSH) and in the data set with NRF2 (−GSH) were 48 µM and 38.8 µM, respectively.
As to `C=C(CC(=O)NC1CS(=O)(=O)C1)C(=O)OC1(c2ccc(C(F)(F)F)cc2)CCC1` [Example 18, 1-(4-(trifluoromethyl)phenyl)cyclobutyl 4-((1,1-dioxidothietan-3-yl)amino)-2-methylene-4-oxobutanoate], the IC50 in the data set with IL-1β (setting [3]) turned out to be 5.2 µM; with IL-6 it was 3.8 µM. For the same compound, the CIint in data set [1] is given as 92 μL min^−1 10^−6 cells; in data set [2], 31 μL min^−1 10^−6 cells. Further, the figures for the half-life at 10 μM in data set [1] and in data set [2] were 14 min and 52 min, respectively. Further, the Emax in the data set on NRF2 (+GSH) was 70%; in the data set with NRF2 (−GSH) it was 90%. Besides, the values for the EC50 with NRF2 (+GSH) and with NRF2 (−GSH) were 39.4 µM and 14.7 µM, respectively.
Consider `C=C(CC(=O)OCC(=O)O)C(=O)OC1(c2ccc(C(F)(F)F)cc2)CCC1` [Example 22, 2-((3-((1-(4-(trifluoromethyl)phenyl)cyclobutoxy)carbonyl)but-3-enoyl)oxy)acetic acid], for which the 50% inhibitory concentration (IC50) with IL-1β (Homo sapiens, differentiated THP-1 cells) was 15.2 µM; with IL-6, greater than 31.6 µM. Further, the CIint in data set [1] is given as 392 μL min^−1 10^−6 cells; in data set [2], 7 μL min^−1 10^−6 cells. The values for the half-life at 10 μM in data set [1] and in data set [2] were 4 min and 204 min, respectively. Besides, the Emax in the data set with NRF2 (+GSH) came out at 45%; in the data set with NRF2 (−GSH) it was 100%. Further, the EC50 in the data set with NRF2 (+GSH) was 41.1 µM; with NRF2 (−GSH) it was 40 µM.
As for `C=C(CC(=O)O)C(=O)OC1(c2ccc(C(F)(F)F)cc2)CCC1` [Example 2, 3-((1-(4-(trifluoromethyl)phenyl)cyclobutoxy)carbonyl)but-3-enoic acid], the IC50 was 4.4 µM in the data set with IL-1β (setting [3]) and greater than 100 µM in the data set with IL-6. In addition, the CIint is listed as less than 3 μL min^−1 10^−6 cells in data set [1] and 9 μL min^−1 10^−6 cells in data set [2]. For the same compound, the values for the half-life at 10 μM in data set [1] and in data set [2] were greater than 460 min and 126 min, respectively. Also, the Emax was found to be 14% in the data set with NRF2 (+GSH) and 26% in the data set with NRF2 (−GSH). For the same compound, the EC50 with NRF2 (+GSH) and with NRF2 (−GSH) was greater than 100 µM each time.
For `C=C(CC(=O)NC1CCOCC1)C(=O)OC1(c2ccc(C(F)(F)F)cc2)CCC1` [Example 20, 1-(4-(trifluoromethyl)phenyl)cyclobutyl 2-methylene-4-oxo-4-((tetrahydro-2H-pyran-4-yl)amino)butanoate], the IC50 in the data set with IL-1β (setting [3]) was found to be 2.9 µM; in the data set with IL-6, 2.6 µM. The CIint in data set [1] came out at 668 μL min^−1 10^−6 cells; in data set [2], 85 μL min^−1 10^−6 cells. The half-life at 10 μM was 3 min in data set [1] and 18 min in data set [2]. In addition, the figures for the Emax in the data set with NRF2 (+GSH) and with NRF2 (−GSH) were 63% and 101%, respectively. In addition, the EC50 in the data set with NRF2 (+GSH) stood at 31.4 µM; in the data set on NRF2 (−GSH) it was 14.4 µM.
Regarding `C=C(CC(=O)NCCO)C(=O)OC1(c2ccc(C(F)(F)F)cc2)CCC1` [Example 19, 1-(4-(trifluoromethyl)phenyl)cyclobutyl 4-((2-hydroxyethyl)amino)-2-methylene-4-oxobutanoate], the IC50 came to 2.5 µM in the data set on IL-1β (setting [3]) and 3.8 µM in the data set with IL-6. Also, the CIint in data set [1] came to 161 μL min^−1 10^−6 cells; in data set [2], 32 μL min^−1 10^−6 cells. Also, the half-life at 10 μM in data set [1] was found to be 13 min; in data set [2] it was 48 min. Besides, the Emax was found to be 102% in the data set with NRF2 (+GSH) and 210% with NRF2 (−GSH). Besides, the EC50 was 50.7 µM in the data set with NRF2 (+GSH) and 40.2 µM in the data set on NRF2 (−GSH).
Regarding `C=C(CC(N)=O)C(=O)OC1(c2ccc(C(F)(F)F)cc2)CCC1` [Example 11, 1-(4-(trifluoromethyl)phenyl)cyclobutyl 4-amino-2-methylene-4-oxobutanoate], the concentration for half-maximal inhibition (IC50) with IL-1β (setting [3]) was 9.9 µM; in the data set on IL-6 it was 13.2 µM. In addition, the CIint was 162 μL min^−1 10^−6 cells in data set [1] and 9 μL min^−1 10^−6 cells in data set [2]. For the same compound, the half-life at 10 μM in data set [1] was determined as 9 min; in data set [2] it was 139 min. Further, the Emax in the data set with NRF2 (+GSH) is 100%; with NRF2 (−GSH) it was 117%. Moreover, the EC50 in the data set on NRF2 (+GSH) came out at 45.7 µM; with NRF2 (−GSH), 33.1 µM.
For the compound `C=C(CC(=O)NCC(N)=O)C(=O)OC1(c2ccc(C(F)(F)F)cc2)CCC1` [Example 21, 1-(4-(trifluoromethyl)phenyl)cyclobutyl 4-((2-amino-2-oxoethyl)amino)-2-methylene-4-oxobutanoate], the IC50 was determined as 7.2 µM with IL-1β (setting [3]) and 3.9 µM with IL-6. In addition, the figures for the CIint in data set [1] and in data set [2] were 100 μL min^−1 10^−6 cells and 37 μL min^−1 10^−6 cells, respectively. In addition, the results for the half-life at 10 μM in data set [1] and in data set [2] were 21 min and 42 min, respectively. Besides, the Emax with NRF2 (+GSH) amounted to 86%; with NRF2 (−GSH) it was 184%. The EC50 in the data set with NRF2 (+GSH) is 55 µM; in the data set on NRF2 (−GSH), 38 µM.
